Data taken from ChEMBL document CHEMBL1201862, “PubChem BioAssay data set” (2004).
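Exposure lasted 48 hours, with cells grown in 96-well plates and compounds tested at five concentrations. At the GI50, growth is halved.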 The source made the active and inactive calls. Cut-off read from the data, not from the text of the source: active = GI50 up to about 1.1 µM and inactive = higher.

Tests used:
Experiment in all cases: inhibition of tumour cell growth, NCI panel, 48 h
MDA-MB-435 = test system: MDA-MB-435
SF-268 = test system: SF-268
OVCAR-8 = test system: OVCAR-8
HCC 2998 = test system: HCC 2998
LOX IMVI = test system: LOX IMVI
CCRF-CEM = test system: CCRF-CEM
KM12 = test system: KM12
UACC-257 = test system: UACC-257
SW-620 = test system: SW-620
SR = test system: SR
OVCAR-5 = test system: OVCAR-5
CAKI-1 = test system: CAKI-1
MDA-MB-231 = test system: MDA-MB-231
HOP-92 = test system: HOP-92
M14 = test system: M14
NCI-H226 = test system: NCI-H226
MCF7 = test system: MCF7
UO-31 = test system: UO-31
DU-145 = test system: DU-145
Hs-578T = test system: Hs-578T
SK-MEL-2 = test system: SK-MEL-2
SNB-75 = test system: SNB-75
Malme-3M = test system: Malme-3M
U-251 = test system: U-251
SK-MEL-28 = test system: SK-MEL-28
SNB-19 = test system: SNB-19
786-0 = test system: 786-0
UACC-62 = test system: UACC-62
IGROV-1 = test system: IGROV-1
SK-MEL-5 = test system: SK-MEL-5
T47D = test system: T47D
HT-29 = test system: HT-29
K562 = test system: K562
SK-OV-3 = test system: SK-OV-3
COLO 205 = test system: COLO 205
MDA-N = test system: MDA-N
OVCAR-4 = test system: OVCAR-4
ACHN = test system: ACHN
HCT-15 = test system: HCT-15
BT-549 = test system: BT-549
SF-295 = test system: SF-295
HCT-116 = test system: HCT-116
NCI-H460 = test system: NCI-H460
RXF 393 = test system: RXF 393
OVCAR-3 = test system: OVCAR-3
HOP-62 = test system: HOP-62
A549 = test system: A549
SN12C = test system: SN12C
A498 = test system: A498
EKVX = test system: EKVX
RPMI-8226 = test system: RPMI-8226
NCI/ADR-RES = test system: NCI/ADR-RES
NCI-H522 = test system: NCI-H522
TK-10 = test system: TK-10
SF-539 = test system: SF-539
NCI-H23 = test system: NCI-H23
MOLT-4 = test system: MOLT-4
PC-3 = test system: PC-3

Structure (SMILES): COc1cc2c(cc1OCc1ccccc1)NC(=S)[C@@H]1CCCN1C2=S
- GI50 (MDA-MB-435): > 100 µM (inactive)
- GI50 (SF-268): > 100 µM (inactive)
- GI50 (OVCAR-8): 12.3 µM (inactive)
- GI50 (HCC 2998): > 100 µM (inactive)
- GI50 (LOX IMVI): 55.5 µM (inactive)
- GI50 (CCRF-CEM): > 100 µM (inactive)
- GI50 (KM12): 30.1 µM (inactive)
- GI50 (UACC-257): > 100 µM (inactive)
- GI50 (SW-620): > 100 µM (inactive)
- GI50 (SR): 48.5 µM (inactive)
- GI50 (OVCAR-5): > 100 µM (inactive)
- GI50 (CAKI-1): > 100 µM (inactive)
- GI50 (MDA-MB-231): 85.3 µM (inactive)
- GI50 (HOP-92): 94 µM (inactive)
- GI50 (M14): > 100 µM (inactive)
- GI50 (NCI-H226): 93.5 µM (inactive)
- GI50 (MCF7): 95.5 µM (inactive)
- GI50 (UO-31): > 100 µM (inactive)
- GI50 (DU-145): > 100 µM (inactive)
- GI50 (Hs-578T): 4.84 µM (inactive)
- GI50 (SK-MEL-2): > 100 µM (inactive)
- GI50 (SNB-75): 15 µM (inactive)
- GI50 (Malme-3M): 71.6 µM (inactive)
- GI50 (U-251): 49.4 µM (inactive)
- GI50 (SK-MEL-28): > 100 µM (inactive)
- GI50 (SNB-19): > 100 µM (inactive)
- GI50 (786-0): 88.1 µM (inactive)
- GI50 (UACC-62): > 100 µM (inactive)
- GI50 (IGROV-1): 80.7 µM (inactive)
- GI50 (SK-MEL-5): 62.8 µM (inactive)
- GI50 (T47D): 82.4 µM (inactive)
- GI50 (HT-29): 18.2 µM (inactive)
- GI50 (K562): 45.2 µM (inactive)
- GI50 (SK-OV-3): > 100 µM (inactive)
- GI50 (COLO 205): > 100 µM (inactive)
- GI50 (MDA-N): > 100 µM (inactive)
- GI50 (OVCAR-4): 4.09 µM (inactive)
- GI50 (ACHN): > 100 µM (inactive)
- GI50 (HCT-15): > 100 µM
- GI50 (BT-549): > 100 µM (inactive)
- GI50 (SF-295): 37.5 µM (inactive)
- GI50 (HCT-116): > 100 µM (inactive)
- GI50 (NCI-H460): > 100 µM (inactive)
- GI50 (RXF 393): > 100 µM (inactive)
- GI50 (OVCAR-3): 43.1 µM (inactive)
- GI50 (HOP-62): 5.85 µM (inactive)
- GI50 (A549): 73.8 µM (inactive)
- GI50 (SN12C): > 100 µM (inactive)
- GI50 (A498): > 100 µM (inactive)
- GI50 (EKVX): > 100 µM (inactive)
- GI50 (RPMI-8226): > 100 µM (inactive)
- GI50 (NCI/ADR-RES): > 100 µM (inactive)
- GI50 (NCI-H522): 71.6 µM (inactive)
- GI50 (TK-10): > 100 µM (inactive)
- GI50 (SF-539): 17.4 µM (inactive)
- GI50 (NCI-H23): > 100 µM (inactive)
- GI50 (MOLT-4): > 100 µM (inactive)
- GI50 (PC-3): > 100 µM (inactive)

Structure (SMILES): c1ccc(B2OCC(C3OB(c4ccccc4)OC4COB(c5ccccc5)OC43)O2)cc1 (centres undefined)
- GI50 (MDA-MB-435): > 100 µM (inactive)
- GI50 (SF-268): > 100 µM (inactive)
- GI50 (OVCAR-8): > 100 µM (inactive)
- GI50 (LOX IMVI): > 100 µM (inactive)
- GI50 (CCRF-CEM): > 100 µM (inactive)
- GI50 (KM12): > 100 µM (inactive)
- GI50 (UACC-257): > 100 µM (inactive)
- GI50 (SW-620): > 100 µM (inactive)
- GI50 (SR): > 100 µM (inactive)
- GI50 (OVCAR-5): > 100 µM (inactive)
- GI50 (CAKI-1): > 100 µM (inactive)
- GI50 (MDA-MB-231): > 100 µM (inactive)
- GI50 (HOP-92): > 100 µM (inactive)
- GI50 (M14): > 100 µM (inactive)
- GI50 (MCF7): > 100 µM (inactive)
- GI50 (UO-31): > 100 µM (inactive)
- GI50 (DU-145): > 100 µM (inactive)
- GI50 (Hs-578T): > 100 µM (inactive)
- GI50 (SK-MEL-2): > 100 µM (inactive)
- GI50 (SNB-75): > 100 µM (inactive)
- GI50 (Malme-3M): > 100 µM (inactive)
- GI50 (U-251): > 100 µM (inactive)
- GI50 (SK-MEL-28): > 100 µM (inactive)
- GI50 (SNB-19): > 100 µM (inactive)
- GI50 (786-0): > 100 µM (inactive)
- GI50 (UACC-62): > 100 µM (inactive)
- GI50 (IGROV-1): > 100 µM (inactive)
- GI50 (SK-MEL-5): > 100 µM (inactive)
- GI50 (T47D): > 100 µM (inactive)
- GI50 (HT-29): > 100 µM (inactive)
- GI50 (K562): > 100 µM (inactive)
- GI50 (SK-OV-3): > 100 µM (inactive)
- GI50 (COLO 205): > 100 µM (inactive)
- GI50 (MDA-N): > 100 µM (inactive)
- GI50 (OVCAR-4): > 100 µM (inactive)
- GI50 (ACHN): > 100 µM (inactive)
- GI50 (HCT-15): > 100 µM
- GI50 (BT-549): > 100 µM (inactive)
- GI50 (SF-295): > 100 µM (inactive)
- GI50 (HCT-116): > 100 µM (inactive)
- GI50 (NCI-H460): > 100 µM (inactive)
- GI50 (RXF 393): > 100 µM (inactive)
- GI50 (OVCAR-3): > 100 µM (inactive)
- GI50 (HOP-62): > 100 µM (inactive)
- GI50 (A549): > 100 µM (inactive)
- GI50 (SN12C): > 100 µM (inactive)
- GI50 (A498): > 100 µM (inactive)
- GI50 (EKVX): > 100 µM (inactive)
- GI50 (RPMI-8226): > 100 µM (inactive)
- GI50 (NCI/ADR-RES): > 100 µM (inactive)
- GI50 (NCI-H522): 24.5 µM (inactive)
- GI50 (TK-10): > 100 µM (inactive)
- GI50 (SF-539): > 100 µM (inactive)
- GI50 (NCI-H23): > 100 µM (inactive)
- GI50 (MOLT-4): > 100 µM (inactive)
- GI50 (PC-3): > 100 µM (inactive)
